We go through three compounds from ChEMBL document CHEMBL5724914, “Linking interpersonal differences in gut microbiota composition and drug biotransformation activity” (2024).

A short description of data set [1]: The drug is tested on Z-013 corresponding to rabbit gut metagenome with ENA study accession number: PRJEB37062 and ENA sample accession number: ERS12561813 for biotransformation under anaerobic condition. The drug concentrations were measured over 9 timepoints collected between 0 and 24 hours of incubation by liquid-chromatography-coupled mass spectrometry (LC–MS). Conditions: 2 µM.

A short description of data set [2]: The drug is tested on Z-011 corresponding to mouse gut metagenome with ENA study accession number: PRJEB37062 and ENA sample accession number: ERS12561811 for biotransformation under anaerobic condition. The drug concentrations were measured over 9 timepoints collected between 0 and 24 hours of incubation by liquid-chromatography-coupled mass spectrometry (LC–MS). Conditions: 2 µM.

Data set [3] in a line: The drug is tested on Z-006 corresponding to mouse gut metagenome with ENA study accession number: PRJEB37062 and ENA sample accession number: ERS12561806 for biotransformation under anaerobic condition. The drug concentrations were measured over 9 timepoints collected between 0 and 24 hours of incubation by liquid-chromatography-coupled mass spectrometry (LC–MS). Conditions: 2 µM.

The nature of data set [4]: The drug is tested on WLS-370 corresponding to human gut metagenome with ENA study accession number: PRJEB37062 and ENA sample accession number: ERS12561793 for biotransformation under anaerobic condition. The drug concentrations were measured over 9 timepoints collected between 0 and 24 hours of incubation by liquid-chromatography-coupled mass spectrometry (LC–MS). Conditions: 2 µM.

Data set [5] can be described thus: The drug is tested on WLS-350 corresponding to human gut metagenome with ENA study accession number: PRJEB37062 and ENA sample accession number: ERS12561789 for biotransformation under anaerobic condition. The drug concentrations were measured over 9 timepoints collected between 0 and 24 hours of incubation by liquid-chromatography-coupled mass spectrometry (LC–MS). Conditions: 2 µM.

The nature of data set [6]: The drug is tested on WLS-082 corresponding to human gut metagenome with ENA study accession number: PRJEB37062 and ENA sample accession number: ERS12561751 for biotransformation under anaerobic condition. The drug concentrations were measured over 9 timepoints collected between 0 and 24 hours of incubation by liquid-chromatography-coupled mass spectrometry (LC–MS). Conditions: 2 µM.

A short description of data set [7]: The drug is tested on WLS-052 corresponding to human gut metagenome with ENA study accession number: PRJEB37062 and ENA sample accession number: ERS12561747 for biotransformation under anaerobic condition. The drug concentrations were measured over 9 timepoints collected between 0 and 24 hours of incubation by liquid-chromatography-coupled mass spectrometry (LC–MS). Conditions: 2 µM.

The nature of data set [8]: The drug is tested on WLS-039 corresponding to human gut metagenome with ENA study accession number: PRJEB37062 and ENA sample accession number: ERS12561746 for biotransformation under anaerobic condition. The drug concentrations were measured over 9 timepoints collected between 0 and 24 hours of incubation by liquid-chromatography-coupled mass spectrometry (LC–MS). Conditions: 2 µM.

The nature of data set [9]: The drug is tested on WLS-010 corresponding to human gut metagenome with ENA study accession number: PRJEB37062 and ENA sample accession number: ERS12561743 for biotransformation under anaerobic condition. The drug concentrations were measured over 9 timepoints collected between 0 and 24 hours of incubation by liquid-chromatography-coupled mass spectrometry (LC–MS). Conditions: 2 µM.

Data set [10] in a line: The drug is tested on WLS-007 corresponding to human gut metagenome with ENA study accession number: PRJEB37062 and ENA sample accession number: ERS12561742 for biotransformation under anaerobic condition. The drug concentrations were measured over 9 timepoints collected between 0 and 24 hours of incubation by liquid-chromatography-coupled mass spectrometry (LC–MS). Conditions: 2 µM.

Data set [11] is described as follows: The drug is tested on WLS-006 corresponding to human gut metagenome with ENA study accession number: PRJEB37062 and ENA sample accession number: ERS12561741 for biotransformation under anaerobic condition. The drug concentrations were measured over 9 timepoints collected between 0 and 24 hours of incubation by liquid-chromatography-coupled mass spectrometry (LC–MS). Conditions: 2 µM.

For data set [12] the following is noted: human gut metagenome, 24 h, 2 µM.
The conditions of data set [13]: human gut metagenome, 24 h, 2 µM. This is another data set of the same source.
The conditions of data set [14]: human gut metagenome, 24 h, 2 µM. This is another data set of the same source.
For data set [15] the following is noted: human gut metagenome, 24 h, 2 µM. This is another data set of the same source.
For data set [16] the following is noted: human gut metagenome, 24 h, 2 µM. The source holds these as a separate data set.
The conditions of data set [17]: human gut metagenome, 24 h, 2 µM. The source holds these as a separate data set.
The conditions of data set [18]: human gut metagenome, 24 h, 2 µM. This is another data set of the same source.
The conditions of data set [19]: human gut metagenome, 24 h, 2 µM. This is another data set of the same source.
For data set [20] the following is noted: human gut metagenome, 24 h, 2 µM. The source holds these as a separate data set.
Further: call rule not given here.

`COc1ccc(C(CN(C)C)C2(O)CCCCC2)cc1` (stereo not given) [VENLAFAXINE]: the “Bacterial Biotransformation” value in data set [1], in [2], in [3], in data set [4], in data set [5] and in data set [6] was “Compound NOT metabolized” in each case. In addition, the “Bacterial Biotransformation” value in data set [7], in data set [8], in data set [9], in data set [10], in data set [11] and in data set [12] was “Compound NOT metabolized” in each case. For the same compound, the “Bacterial Biotransformation” value in [13] is “Compound NOT metabolized”; in data set [14], “Compound NOT metabolized”; in data set [15], “Compound NOT metabolized”; in data set [16], “Compound NOT metabolized”; in data set [17] it was “Compound NOT metabolized”; in [18] it was “Compound metabolized”. In addition, the “Bacterial Biotransformation” value in data set [19] and in data set [20] was “Compound NOT metabolized” in each case.
With `O=C1CC2(CCCC2)CC(=O)N1CCCCN1CCN(c2ncccn2)CC1` [BUSPIRONE], the “Bacterial Biotransformation” value is reported as “Compound NOT metabolized” in data set [1]; “Compound NOT metabolized” in data set [2]; “Compound NOT metabolized” in data set [3]; “Compound NOT metabolized” in data set [4]; “Compound metabolized” in data set [5]; “Compound NOT metabolized” in [6]. Further, the “Bacterial Biotransformation” value in [7] was “Compound NOT metabolized”; in data set [8], “Compound NOT metabolized”; in data set [9], “Compound NOT metabolized”; in [10] it was “Compound NOT metabolized”; in [11], “Compound NOT metabolized”; in data set [12] it was “Compound metabolized”. Moreover, the “Bacterial Biotransformation” value in data set [13] is “Compound metabolized”; in [14] it was “Compound metabolized”; in data set [15], “Compound metabolized”; in data set [16] it was “Compound NOT metabolized”; in data set [17] it was “Compound metabolized”; in [18], “Compound metabolized”. The “Bacterial Biotransformation” value in data set [19] and in data set [20] was “Compound NOT metabolized” each time.
Regarding `CC(C)(C)NCC(O)c1cc(Cl)c(N)c(Cl)c1` (stereo not given) [CLENBUTEROL], the “Bacterial Biotransformation” value in [1], in data set [2], in [3], in data set [4], in data set [5] and in data set [6] was “Compound NOT metabolized” each time. The “Bacterial Biotransformation” value in data set [7], in data set [8], in data set [9], in [10], in data set [11] and in [12] was “Compound NOT metabolized” throughout. Besides, the “Bacterial Biotransformation” value in data set [13], in data set [14], in data set [15], in [16], in [17] and in data set [18] was “Compound NOT metabolized” each time. Moreover, the “Bacterial Biotransformation” value in [19] and in data set [20] was “Compound NOT metabolized” each time.
